Results from US5153180A, “Fluorinated nucleosides and process for treating retrovirus infections therewith” (priority 1990, dated 1992).
Like-named read-outs stand apart in the source and are kept apart here.

Tests used:
[1] = test system: K-37 immortalized T-cells; test: Inhibition of proliferation of K-37 cells; format: cell-based; conditions: Homo sapiens, T-cell
Source text: (§1) Originally FTdR was developed as a cytostatic agent (P. Langen et al., Acta biol. med. Germ. 23, 759, 1969; and U.S. Pat. No. 3,775,397) and, therefore, its cytostatic efficacy has been examined in extensive prior studies. […] Ehrlich-mouse-ascites-carcinoma cells (EMAC) represents an exception to that finding, and this is probably connected to its high capability of phosphorylation of FTdR, which is 10 times higher than in human cells. The fast reversibility of the cytostatic effects on EMAC cells was regarded as a special property of this compound (P. Langen et al., Europ. J. Cancer. 14. 349, 1978). The antiproliferative effect of FTdR and FddUrd, and in comparison thereto of N3 -TdR were tested on human cell lines with regard to a possible use in humans. […] When FTdR is compared to N3 -TdR. The effects are very similar, however somewhat lower in each case for N3 -TdR than for FTdR.
(§2) CD50 : inhibitory dose required to reduce the cell number by 50%

[2] = test system: HTLV-IIIB -infected H9 cells; conditions: 50 μm N3 -TdR, 24-hour incubation; cited from earlier work
[3] = test system: K-562 acute myeloic leukemia; test: Inhibition of proliferation of K-562 cells; format: cell-based; conditions: Homo sapiens
Source text: as §1, §2

[4] = AIDS patients treated; cited from earlier work
[5] = test system: H9 immortalized T-cells; test: Inhibition of proliferation of H9 cells; format: cell-based; conditions: Homo sapiens, T-cell
Source text: as §1, §2

[6] = test system: REH acute lymphatic leukemia; test: Inhibition of proliferation of REH cells; format: cell-based; conditions: Homo sapiens
Source text: as §1, §2

[7] = test system: HIV; test: Inhibition of the cytopathic effect of HIV on MT-4 cells; format: cell-based; conditions: for EC50: Human immunodeficiency virus 1, MT4, 144 h
Description: (§3) Under in vitro conditions immortalized T-lymphocytes can be killed within few days by the cytopathic effect of HIV. […] For this purpose about 20,000 MT-4 cells (Harada et al. Science 229, 563 (1985)) Were infected with HIV (titer: 0.04 m.o.i.) and incubated in the presence or absence of varying concentrations of compounds according to formula I, with 10% fetal calf serum (FCS) in 200 μl RPMI medium. After 6 days of incubation the viable cells were counted that were excluded from trypan blue staining.

[8] = Toxicity of continuous oral FTdR in mice
Description: (§4) Therefore we examined the toxicity and antiretroviral activity of FTdR in mice infected with Rauscher murine leukemia virus. Different doses of FTdR were applied to BalB/c Han strain of mice in plain water for 20 days beginning 2-8 hours after RLV infection.

[9] = in vitro; conditions: human, mt-4 cells
Description: as §3

[10] = test system: Rauscher murine leukemia virus (RLV); test: Antiretroviral activity in mice infected with Rauscher murine leukemia virus; format: in vivo; conditions: for Reverse transcriptas serum / mean spleen weight: RLV +; for Reverse transcriptas serum: 100% = 66000 dpm, treatment discontinued 12 hours before
Description: as §4

[11] = test system: MT4; test: Intracellular phosphorylation of 3H-FTdR in MT4 cells; format: in vitro ADME; conditions: 1/um 3H-FTdR, within 24 hours, Human MT4
Description: (§5) The critical factor for 3'-fluoro-substituted deoxynucleosides to reach a high intracellular efficiency is their ability to be phosphorylated in situ in the infected cells. […] By comparison, the phosphorylation of 50 μm N3 -TdR by HTLV-IIIB -infected H9 cells to the triphosphate during a 24-hour incubation has been reported to reach only 0.9 pmoles/10^6 cells and to be accompanied by an extreme accumulation of the monophosphate of N3 -TdR (460 pmoles/10^6 cells), reflecting a strong inhibition of the dTMP-kinase (Furman et al., Proc. Natl. Acad. Sci. U.S.A. 83 8333 (1986)) and entailing considerable alterations of the deoxynucleoside triphosphate substrate pools (Furman et al., loc. cit.) which affect cellular DNA synthesis.
(§6) Synthesis of nucleotides from 1/um^3 H-FTdR (tritium labeled)
(§7) in cells of various species within 24 hours.

[12] = test system: 9 different animal tumors; conditions: NCI program; cited from earlier work
[13] = test system: CEM (LAV-II); test: Intracellular phosphorylation of 3H-FTdR in CEM (LAV-II) cells; format: in vitro ADME; conditions: 1/um 3H-FTdR, within 24 hours, Human CEM (LAV-II)
Description: as §5, §6, §7

[14] = test system: H9 (HTLV-IIIB); test: Intracellular phosphorylation of 3H-FTdR in H9 (HTLV-IIIB) cells; format: in vitro ADME; conditions: 1/um 3H-FTdR, within 24 hours, Human H9 (HTLV-IIIB)
Description: as §5, §6, §7

[15] = test system: Ehrlich-mouse-ascites-carcinoma cells (EMAC); conditions: cited from earlier work
[16] = test system: NRK-49F; test: Intracellular phosphorylation of 3H-FTdR in NRK-49F cells; format: in vitro ADME; conditions: 1/um 3H-FTdR, within 24 hours, Rat NRK-49F
Description: as §5, §6, §7

[17] = target: T1, thymidine-phosphorylase from human spleen (Homo sapiens, UniProt P19971); test: Phosphorolytic cleavage by thymidine-phosphorylase; format: in vitro ADME
T1 construct: thymidine-phosphorylase from human spleen; from tissue; host or cells: human spleen
T1 sequence (P19971 11-482): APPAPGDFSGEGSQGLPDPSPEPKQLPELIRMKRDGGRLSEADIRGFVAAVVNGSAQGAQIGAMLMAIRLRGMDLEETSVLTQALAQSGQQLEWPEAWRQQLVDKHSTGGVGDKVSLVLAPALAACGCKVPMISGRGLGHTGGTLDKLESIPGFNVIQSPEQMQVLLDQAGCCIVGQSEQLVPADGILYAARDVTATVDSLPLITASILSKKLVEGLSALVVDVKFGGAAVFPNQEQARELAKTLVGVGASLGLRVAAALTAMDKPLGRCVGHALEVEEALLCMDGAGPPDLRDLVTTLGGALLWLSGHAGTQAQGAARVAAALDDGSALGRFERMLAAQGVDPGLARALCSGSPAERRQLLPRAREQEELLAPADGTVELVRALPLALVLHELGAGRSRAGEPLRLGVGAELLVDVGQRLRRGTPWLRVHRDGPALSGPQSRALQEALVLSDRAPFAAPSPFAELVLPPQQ
Source text: Therefore FTdR, FddBrUrd and FddFUrd were investigated for their ability to be cleaved by thymidine-phosphorylase from human spleen.

[18] = test system: 3T3; test: Intracellular phosphorylation of 3H-FTdR in 3T3 cells; format: in vitro ADME; conditions: 1/um 3H-FTdR, within 24 hours, Mouse 3T3
Description: as §5, §6, §7

[19] = 6.5 mg/kg/day in drinking water for 20 days, RLV +
[20] = 6.5 mg/kg/day in drinking water for 20 days, RLV -
[21] = 69.0 mg/kg/day in drinking water for 20 days, RLV +
[22] = 69.0 mg/kg/day in drinking water for 20 days, RLV -
[23] = oral 1.8 mg/kg/day, given for 24 days

SMILES: Cc1cn([C@H]2C[C@H](N=[N+]=[N-])[C@@H](CO)O2)c(=O)[nH]c1=O [N3 -TdR, 3'-azido-2',3'-dideoxythymidine, reference compound]
- IC50 ([1]; read-out: CD50): 500 µM
- accumulation of the monophosphate [2]: 460 pmoles/10^6 cells
- phosphorylation to the triphosphate [2]: 0.9 pmoles/10^6 cells
- IC50 ([3]; K562, read-out: CD50): 50 µM
- patients requiring blood transfusions (toxic side effects on the bone marrow) [4]: about 50%
- IC50 ([5]; read-out: CD50): 800 µM
- IC50 ([6]; read-out: CD50): 220 µM
- EC50 ([7]; read-out: ED50): 0.016 µM

SMILES: Cc1cn([C@H]2C[C@H](F)[C@@H](CO)O2)c(=O)[nH]c1=O [FTdR, 2',3'-dideoxy-3'-fluorothymidine]
- signs of anemia and depression of white cell counts ([8]; 6.5 mg/kg/day): failed to produce signs of anemia and depression of white cell counts
- Hemoglobin [8, 19]: 8.1 mmol/L
- changes of body weight [8, 19]: 0%
- Hemoglobin [8, 20]: 8.9 mmol/L
- changes of body weight [8, 20]: +1%
- mean spleen weight [8, 20]: 125 mg
- toxic side effects (hematological parameters) ([8]; 69.0 mg/kg/day): toxic side effects are associated with this concentration range
- Hemoglobin [8, 21]: 5.1 mmol/L
- changes of body weight [8, 21]: -10%
- Hemoglobin [8, 22]: 4.3 mmol/L
- changes of body weight [8, 22]: -12%
- mean spleen weight [8, 22]: 72 mg
- IC50 ([1]; dose required to reduce the cell number by 50%, K-37, read-out: CD50 (the source's name)): 260 µM
- CC50 at 144 h [9]: 1.1 µM
- suppression of splenomegaly and viremia ([10]; 6.5 mg/kg/day): completely active in suppressing splenomegaly and viremia
- Reverse transcriptas serum ([10]; 6.5 mg/kg/day for 20 days): 0%
- mean spleen weight ([10]; 6.5 mg/kg/day in drinking water for 20 days): 192 mg
- splenomegaly and RLV-associated reverse transcriptase activity in the serum ([10]; 69.0 mg/kg/day): completely suppresses
- Reverse transcriptas serum ([10]; 69.0 mg/kg/day for 20 days): 0%
- mean spleen weight ([10]; 69.0 mg/kg/day in drinking water for 20 days): 86 mg
- development of RLV induced leukemia ([10]; 69.0 mg/kg/day, continuous application for 20 days): able to prevent the development of a leukemia
- suppression of serum reverse transcriptase activity [10, 23]: more than 70%
- suppression of splenomegaly [10, 23]: more than 50%
- diphosphate (FdTDP) [11]: 1.6 pmoles/106 cells
- monophosphate (FdTMP) [11]: 9.9 pmoles/106 cells
- triphosphate (FdTTP) [11]: 5.6 pmoles/106 cells
- cytostatic effect [12]: only a weak cytostatic effect
- diphosphate (FdTDP) [13]: 0.5 pmoles/106 cells
- monophosphate (FdTMP) [13]: 6.1 pmoles/106 cells
- triphosphate (FdTTP) [13]: 2.8 pmoles/106 cells
- diphosphate (FdTDP) [14]: 0.3 pmoles/106 cells
- monophosphate (FdTMP) [14]: 3.3 pmoles/106 cells
- triphosphate (FdTTP) [14]: 1.4 pmoles/106 cells
- capability of phosphorylation of FTdR in EMAC versus human cells [15]: 10 times
- IC50 ([3]; K562, dose required to reduce the cell number by 50%, K-562, read-out: CD50 (the source's name)): 45 µM
- diphosphate (FdTDP) [16]: 3.7 pmoles/106 cells
- monophosphate (FdTMP) [16]: 3.5 pmoles/106 cells
- triphosphate (FdTTP) [16]: 13.2 pmoles/106 cells
- IC50 ([5]; dose required to reduce the cell number by 50%, H9, read-out: CD50 (the source's name)): 1000 µM
- IC50 ([6]; dose required to reduce the cell number by 50%, read-out: CD50 (the source's name)): 160 µM
- metabolised at 3 h, 1000 µM [17]: 3 to 8%
- diphosphate (FdTDP) [18]: 2.2 pmoles/106 cells
- monophosphate (FdTMP) [18]: 0.38 pmoles/106 cells
- triphosphate (FdTTP) [18]: 16.3 pmoles/106 cells
- EC50 ([7]; read-out: ED50 (the source's name)): 0.003 µM
- antiviral activity of FTdR against N3 -TdR ([7]; cellular test, ratio of ED50): 5 times
